Measurements from patent publication US8114406B2, “Peptides and their utility in modulation of behavior of cells expressing α3β1 integrins” (The United States of America as represented by the …, priority 1999, dated 2012).
Like-named read-outs stand apart in the source and are kept apart here. Where a SMILES comes first, the peptide text is derived from it. Where no end group is shown, it is not given here.

How the values were obtained:
[1] = tested on: MDA-MB-435 breast carcinoma cells; assay: Direct adhesion of MDA-MB-435 cells to peptides adsorbed on polystyrene; format: cell-based, human; conditions: peptides adsorbed at 10 μM (FIG. 2)
Method: (§1) Adhesion assays of cells other than small cell lung carcinoma (SCLC)-Adhesion was measured on polystyrene or glass substrates coated with peptides or proteins as previously described (Guo et al., 1992). Peptides dissolved in PBS at 0.4 to 50 μM were incubated in polystyrene microliter plate wells overnight at 4° C. The wells were washed 3 times with distilled water. Adsorbed peptide was quantified using the BCA assay (Pierce Chemical) measuring absorbance at 570 and 630 nm as described by the supplier's protocol. The assay for adsorption was calibrated using purified peptide in solution as a standard. After blocking with 1% BSA in Dulbecco's PBS, adhesion assays were performed by adding cells suspended in DMEM (BAE cells) or medium 199 (human cells) containing 1 mg/ml BSA. Cell attachment and spreading was quantified microscopically.

H69 SCLC cells = assay: SCLC cell adhesion to extracellular matrix proteins, H69; format: cell-based, human
Method: (§2) For adhesion assays of SCLC, these cells were washed once with RPMI 1640 and centrifuged at 400×g for 3 min. The pellet was suspended in 2.5 mM EDTA in PBS, pH 7.4 and incubated for 10 min at 37° C. After trituration three times and centrifugation, the cells were resuspended in RPMI 1640 containing 0.1% BSA (Sigma Co. St Louis, Mo.).
(§3) Adhesion of SCLC cells to extracellular matrix proteins. Extracellular matrix proteins or peptides in Dulbecco's PBS were adsorbed onto polystyrene by incubating overnight at 4° C. […] The supernatant fluid was removed, and the dishes were incubated with Tris-gelatin (ICN) (50 mM Tris-HCl, 110 mM NaCl, 5 mM CaCl2, 0.1 mM phenylmethylsulfonyl fluoride, 0.2% gelatin and 0.02% NaN3, pH 7.8) or Dulbeccos PBS with 1% BSA, as indicated, for 30 min to minimize nonspecific adhesion. The disks were washed twice with cold PBS, pH 7.2 and overlayed with dissociated SCLC cells prepared as described above at a density of 2.5×10^5/cm^2.
(§4) For inhibition studies with SCLC cells, inhibitors or antibodies were added and incubated with SCLC cells at the indicated concentrations. After incubation for 60-90 min at 37° C., the disks were washed by dipping six times in PBS, pH 7.2, fixed with 1% glutaraldehyde in PBS, pH 7.2, and stained with Diff-Quik. Attached cells were counted microscopically.

H345 SCLC cells = assay: SCLC cell adhesion to extracellular matrix proteins, H345; format: cell-based, human
Method: as §2, §3, §4

N417 SCLC cells = assay: SCLC cell adhesion to extracellular matrix proteins, N417; format: cell-based, human
Method: as §2, §3, §4

[2] = tested on: MDA-MB-435 breast carcinoma cells; assay: Inhibition of MDA-MB-435 cell adhesion to immobilized peptide 678 (microscopic adhesion assay); format: cell-based, human
Method: as §1

[3] = tested on: MDA-MB-435 breast carcinoma cells
Method: MDA-MB-435 cell adhesion to microliter plate wells coated with 5 uM peptide 678 was determined in the presence of the indicated concentrations of soluble carboxamidomethyl-peptide 716 or peptide 716 covalently linked to FICOLL™ as previously described (Guo et al., 1997). After washing twice to remove unattached cells, adherent cells were quantified by detection of cellular hexosaminidase using p-nitrophenyl-N-acetylglucosaminide as substrate. Released p-nitrophenol was detected by absorbance at 405 nm. Results are mean+/−SD, n=3.
In this case, the adherent cells are quantified by detection of cellular hexosaminidase using p-nitrophenyl-N-acetylglucosaminidine as substrate. Released p-nitrophenol is detected by absorbance at 405 nm.

HUVEC = HUVEC spreading on coated substrates; format: cell-based, human
Method: FIGS. 14A, 14B and 14C display α3β1 and αvβ3 integrin-mediated spreading of endothelial cells on thrombospondin-1. […] Results are expressed as percent of the response for untreated cells, mean±S.D., n=3.
as §1

[4] = tested on: chick chorioallantoic membrane (CAM) angiogenesis; assay: Chick chorioallantoic membrane (CAM) angiogenesis assay; format: in vivo, chicken; conditions: relative to control gels, mean ± SD
Method: Fertilized Leghorn chicken eggs were obtained from Ramona Duck farm (Westminster, Calif.). At day 3 of development, the embryos were placed on 100 mm petri dishes. Assays were performed as previously described (Iruela-Arispe et al., 1999). […] Peptides were filtered on Centricon P100 prior to their analysis on the CAM assays to eliminate traces of endotoxin. Pellets were applied to the outer ⅓ of the CAM, and the assay was performed for 24 h. Detection of capillary growth was done by injection of FITC-dextran in the bloodstream and observation of the pellets under a fluorescent inverted microscope. Positive controls (growth factors and vehicle), as well as negative controls (vehicle alone) were placed in the same CAM and used as reference of 100% stimulation or baseline inhibition (0%), and response to the peptides was determined according to these internal controls. Assays were performed in duplicate in each CAM and in four independent CAMs (total of 8 pellets).

[5] = substrate coated at 6.2 μg/ml, mean ± S.D., n = 3
[6] = Table 3, 5 μM peptide 678, read-out: IC50 (μM), inhibition of MDA-MB-435 cell adhesion to immobilized peptide 678
[7] = microscopic adhesion assay, polystyrene coated with 5 μM peptide 678, peptides in solution, read-out: Inhibition of peptide 678 (IC50)

Method for BAE cells: Direct adhesion of BAE cells to the adsorbed peptides or uncoated substrate (control) are presented as mean±SD, n=3. […] Two flasks of BAE cells were grown to confluence. One flask was harvested and replated in fresh medium at 25% confluency. Fresh medium was added at the same time to the second flask. After 16 h, cells from both flasks were dissociated using EDTA and adhesion was measured on substrates coated with 40 μg/ml TSP1, 10 μg/ml vitronectin, 20 μg/ml plasma fibronectin, or 5 μg/ml type I collagen. The percent spread cells after 60 min is presented as mean±SD, n=3 for a representative experiment.
Results are presented as mean±SD, n=3. […] The percent spread cells was determined at 60 min.

## KRFKQDGGWSHWSPWSS [Peptide 246]
[1]
  promotion of MDA-MB-435 cell adhesion: promoted adhesion

## GRGDSP [reference compound]
BAE cells; 300 μM GRGDSP (FIG. 14A)
  spreading response on TSP1 resistant to the peptide: Approximately 20%
BAE cells; combination with peptide 678
  inhibition of BAE cell spreading on TSP1, GRGDSP combined with the α3β1 binding peptide: completely inhibited

## laminin: murine laminin-1 purified from the EHS tumor
H69 SCLC cells; 12.5 μg/ml
  SCLC cell adhesion: 16 ± 1 cells/mm2
H69 SCLC cells; 25 μg/ml
  SCLC cell adhesion: 82 ± 8 cells/mm2
H69 SCLC cells; 50 μg/ml
  SCLC cell adhesion: 108 ± 11 cells/mm2
H69 SCLC cells; [5]
  SCLC cell adhesion: 1 ± 1 cells/mm2
H345 SCLC cells; 6.2 μg/ml
  SCLC cell adhesion: 6 ± 2 cells/mm2
H345 SCLC cells; 12.5 μg/ml
  SCLC cell adhesion: 8 ± 1 cells/mm2
H345 SCLC cells; 25 μg/ml
  SCLC cell adhesion: 151 ± 31 cells/mm2
H345 SCLC cells; 50 μg/ml
  SCLC cell adhesion: 148 ± 9 cells/mm2
N417 SCLC cells; 6.2 μg/ml
  SCLC cell adhesion: 5 ± 1 cells/mm2
N417 SCLC cells; 12.5 μg/ml
  SCLC cell adhesion: 78 ± 3 cells/mm2
N417 SCLC cells; 25 μg/ml
  SCLC cell adhesion: 151 ± 6 cells/mm2
N417 SCLC cells; 50 μg/ml
  SCLC cell adhesion: 160 ± 3 cells/mm2

## NGVQYRNC [Peptide 500]
[1]
  promotion of MDA-MB-435 cell adhesion: weaker adhesive activities

## KRFYVVMWKK [Peptide 4N1K]
[1]
  promotion of MDA-MB-435 cell adhesion: promoted adhesion

## SPWSSCSVTCGDGVITRIR [Mal-II]
[1]
  promotion of MDA-MB-435 cell adhesion: weaker adhesive activities

## AQGVLQNVRFVF [Peptide 697]
[2]; [6]
  IC50: 5 µM
[2]; [7]
  IC50: 5 µM

## VLQNVRFVF [Peptide 688]
[2]; [7]
  IC50: > 100 µM

## FQGVAQNVRFVF [Peptide 695]
[2]; [6]
  IC50: 5 µM
[2]; [7]
  IC50: 5 µM

## QGVLQNVR [Peptide 683]
[2]; [7]
  IC50: > 300 µM

## peptide 716 conjugated to FICOLL: peptide 716 covalently linked to FICOLL (polysucrose) (FQGVLQNVRFVF; not fully specified (N-terminus); also: number of peptides per FICOLL polymer not given here)
[3]; hexosaminidase detection
  inhibition of adhesion of MDA-MB-435 cells to peptide 678, compared to free peptide 716: enhanced

## FQGVLQNVRF [Peptide 682]
[2]; [7]
  IC50: 6 µM

## FQGVLQNARFVF [Peptide 691]
[2]; [6]
  IC50: > 300 µM
[2]; [7]
  IC50: > 300 µM

## TPGQVRTLWHDP [Peptide 701]
[2]; [7]
  IC50: > 300 µM

## CN(Cc1nc2ccccc2[nH]1)C(=O)c1ccc2c(c1)CN(C)C(=O)[C@H](CC(=O)O)N2 [SB223245, reference compound]
HUVEC
  inhibition of HUVEC spreading on TSP1: did not significantly inhibit
  inhibition of HUVEC spreading on vitronectin: completely inhibited
BAE cells; single agent
  inhibition of BAE cell spreading on TSP1: partially inhibited

## FQGVLQNVQFVF [Peptide 703]
[2]; [6]
  IC50: > 100 µM
[2]; [7]
  IC50: > 100 µM
[3]
  IC50: 300 µM

## fibronectin
H69 SCLC cells; 12.5 μg/ml
  SCLC cell adhesion: 5 ± 1 cells/mm2
H69 SCLC cells; 25 μg/ml
  SCLC cell adhesion: 13 ± 3 cells/mm2
H69 SCLC cells; 50 μg/ml
  SCLC cell adhesion: 22 ± 7 cells/mm2
H69 SCLC cells; [5]
  SCLC cell adhesion: 1 ± 1 cells/mm2
H345 SCLC cells; 6.2 μg/ml
  SCLC cell adhesion: 0 cells/mm2
H345 SCLC cells; 12.5 μg/ml
  SCLC cell adhesion: 6 ± 2 cells/mm2
H345 SCLC cells; 25 μg/ml
  SCLC cell adhesion: 25 ± 5 cells/mm2
H345 SCLC cells; 50 μg/ml
  SCLC cell adhesion: 17 ± 5 cells/mm2
N417 SCLC cells; 6.2 μg/ml
  SCLC cell adhesion: 19 ± 2 cells/mm2
N417 SCLC cells; 12.5 μg/ml
  SCLC cell adhesion: 48 ± 4 cells/mm2
N417 SCLC cells; 25 μg/ml
  SCLC cell adhesion: 86 ± 6 cells/mm2
N417 SCLC cells; 50 μg/ml
  SCLC cell adhesion: 78 ± 2 cells/mm2

## FQGVLQNVRAVF [Peptide 692]
[2]; [6]
  IC50: 18 µM
[2]; [7]
  IC50: 18 µM

## Ac-LQNVRF-NH2 [Peptide 681, ac-LQNVRF-am]
[2]; [7]
  IC50: 500 µM

## FQGVLQNVRFVA [Peptide 693]
[2]; [6]
  IC50: 27 µM
[2]; [7]
  IC50: 27 µM

## FAGVLQNVRFVF [Peptide 696]
[2]; [6]
  IC50: 1.8 µM
[2]; [7]
  IC50: 1.8 µM
[4]; 5 μM peptide
  Angiogenic response (% inhibition): 5 ± 2%
[4]; 10 μM peptide
  Angiogenic response (% inhibition): 9 ± 3%
[4]; 20 μM peptide
  Angiogenic response (% inhibition): 12 ± 4%
[3]
  IC50: 12 µM

## LQNVRFVF [Peptide 684]
[2]; [7]
  IC50: 300 µM

## FQGVLQNVHFVF [Peptide 694]
[2]; [6]
  IC50: 54 µM
[2]; [7]
  IC50: 54 µM

## CC(C)C[C@H](NC(=O)[C@H](CCCNC(=N)N)NC(=O)[C@H](CC(C)C)NC(=O)[C@H](CC(N)=O)NC(=O)[C@H](CCCNC(=N)N)NC(=O)[C@@H](NC(=O)[C@H](CS)NC(=O)CNC(=O)[C@H](CCCNC(=N)N)NC(=O)[C@H](Cc1ccccc1)NC(=O)[C@H](CO)NC(=O)[C@H](C)NC(=O)[C@H](CCCNC(=N)N)NC(=O)[C@H](CO)NC(=O)[C@H](CO)NC(=O)[C@H](CC(C)C)NC(=O)[C@H](CS)NC(=O)[C@H](CC(N)=O)NC(=O)[C@H](CCC(N)=O)NC(=O)[C@@H](N)CCCCN)C(C)C)C(=O)N[C@@H](CO)C(=O)N[C@@H](CCCNC(=N)N)C(=O)O [Peptide 675, reference compound] (H-KQNCLSSRASFRGCVRNLRLSR-OH; N-terminus and C-terminus assumed)
[2]; read-out: IC50, inhibition of adhesion to either peptide or TSP1, tested in solution, data not shown
  IC50: 700 µM

## FQGVLQNVKFVF [Peptide 702]
[2]; [6]
  IC50: 6 µM
[2]; [7]
  IC50: 6 µM
[3]
  IC50: 25 µM

## ELTGAARKGSGRRLVKGPD [Hepl, focal adhesion disrupting peptide from the amino terminal domain of TSP1]
[1]
  promotion of MDA-MB-435 cell adhesion: did not promote

## FQGVLNNVRFVF [Peptide 698]
[2]; [7]
  IC50: 3 µM

## QGVLQNVRFVF [Peptide 685]
[2]; [7]
  IC50: 24 µM

## Ac-QGVLQNVRF-OH [Peptide 704]
[3]
  IC50: ~100 µM

## FQGVLANVRFVF [Peptide 687]
[2]; [6]
  IC50: 3 µM
[2]; [7]
  IC50: 3 µM

B1: vitronectin: human vitronectin from Sigma (protein, UniProt P04004 20-478, looked up)
Vitronectin: DQESCKGRCTEGFNVDKKCQCDELCSYYQSCCTDYTAECKPQVTRGDVFTMPEDEYTVYDDGEEKNNATVHEQVGGPSLTSDLQAQSKGNPEQTPVLKPEEEAPAPEVGASKPEGIDSRPETLHPGRPQPPAEEELCSGKPFDAFTDLKNGSLFAFRGQYCYELDEKAVRPGYPKLIRDVWGIEGPIDAAFTRINCQGKTYLFKGSQYWRFEDGVLDPDYPRNISDGFDGIPDNVDAALALPAHSYSGRERVYFFKGKQYWEYQFQHQPSQEECEGSSLSAVFEHFAMMQRDSWEDIFELLFWGRTSAGTRQPQFISRDWHGVPGQVDAAMAGRIYISGMAPRPSLAKKQRFRHRNRKGYRSQRGHSRGRNQNSRRPSRATWLSLFSSEESNLGANNYDDYRMDWLVPATCEPIQSVFFFSGDKYYRVNLRTRRVDTVDPPYPRSIAQYWLGCPAPGHL
BAE cells; cells harvested from a confluent monolayer
  percent spread BAE cells on substrate: approximately 60%
